Earlier results, collected in US8740762B2, “Specific inhibition of cPLA2 enhances the efficacy of radiotherapy” (Vanderbilt University, priority 2007, dated 2014).

Tests used:
pro-survival kinases = conditions: 20 μM

In the case of lysophosphatidylcholine [LPC], the “activation of pro-survival kinases” value (pro-survival kinases) is listed as “activated the same pro-survival kinases”, the cell death (HUVEC; concentrations higher than 25 μM) is listed as “promote cell death” and the “proliferation of HUVEC” value (HUVEC; up to 25 μM) is listed as “increase proliferation”.
